What all share (assay type): functional
Assay [1] deals with Mycobacterium tuberculosis. Put plainly: Antitubercular activity against Mycobacterium tuberculosis H37Rv after 28 days by Lowenstein-Jensen method. The following applies: 672 h.
For assay [2], the system named is Mycobacterium tuberculosis. Put plainly: Growth inhibition of Mycobacterium tuberculosis H37Rv at 6.25 ug/ml after 28 days by Lowenstein-Jensen method. The following applies: 672 h, read-out: GI.
For a further assay, the system named is Candida albicans. Put plainly: Antifungal activity against Candida albicans MTCC 227 after overnight incubation by broth microdilution method.
The test system of a further assay is Aspergillus fumigatus. The assay is described as follows: Antifungal activity against Aspergillus fumigatus MTCC 3008 after overnight incubation by broth microdilution method.
Another assay has as its system Vibrio cholerae. The assay is described as follows: Antibacterial activity against Vibrio cholerae MTCC 3906 after overnight incubation by broth microdilution method.
The next assay has as its system Salmonella typhi. The assay is described as follows: Antibacterial activity against Salmonella enterica subsp. enterica serovar Typhi MTCC 98 after overnight incubation by broth microdilution method.
In the next assay the test system is Escherichia coli. Put plainly: Antibacterial activity against Escherichia coli MTCC 443 after overnight incubation by broth microdilution method.
Another assay deals with Clostridium tetani. Put plainly: Antibacterial activity against Clostridium tetani MTCC 449 after overnight incubation by broth microdilution method.
A further assay relates to Streptococcus pneumoniae. Put plainly: Antibacterial activity against Streptococcus pneumoniae MTCC 1936 after overnight incubation by broth microdilution method.
The subject of a further assay is Bacillus subtilis. The assay is described as follows: Antibacterial activity against Bacillus subtilis MTCC 441 after overnight incubation by broth microdilution method.

Structures are written as SMILES. ≈ marks a conversion by molar mass, not a printed value. Bounds are passed on as bounds.

For seven compounds, MIC, inhibition of growth and MIC99 results are on record in ChEMBL document CHEMBL3046907, “Microwave-assisted synthesis of pyrido[1,2-a]benzimidazole derivatives of -aryloxyquinoline and their antimicrobial and antituberculosis activities” (2013).

`CO[C@H]1/C=C/O[C@@]2(C)Oc3c(C)c(O)c4c(O)c(c(/C=N/N5CCN(C)CC5)c(O)c4c3C2=O)NC(=O)/C(C)=C\C=C\[C@H](C)[C@H](O)[C@@H](C)[C@@H](O)[C@@H](C)[C@H](OC(C)=O)[C@@H]1C` [RIFAMPIN]: the MIC in assay [1] amounted to 40 µg/mL (≈ 48.6 µM). For the same compound, the inhibition of growth at 6.25 µg/mL in assay [2] was found to be 98%.

In [1], `Cc1ccc2c(c1)nc1c(C#N)c(-c3cc4ccccc4nc3Oc3ccc(F)cc3)c(C#N)c(N)n12` came in with an MIC of 6.25 µg/mL (≈ 12.9 µM). In addition, the inhibition of growth at 6.25 µg/mL in assay [2] is 99%. Besides, the MIC99 against Candida albicans was 250 µg/mL (≈ 516 µM); with Aspergillus fumigatus, above 1000 µg/mL; with Vibrio cholerae, 500 µg/mL (≈ 1030 µM); against Salmonella typhi, 125 µg/mL (≈ 258 µM); in the assay on Escherichia coli, 62.5 µg/mL (≈ 129 µM); in the assay on Clostridium tetani, 250 µg/mL (≈ 516 µM). The MIC99 with Streptococcus pneumoniae came out at 100 µg/mL (≈ 206 µM); against Bacillus subtilis, 500 µg/mL (≈ 1030 µM).

For `Cc1ccc2nc(Oc3ccc(F)cc3)c(-c3c(C#N)c(N)n4c(nc5cc(C)ccc54)c3C#N)cc2c1`, in assay [1], the lowest concentration to inhibit growth (MIC) was 12.5 µg/mL (≈ 25.1 µM). For the same compound, in [2], the inhibition of growth at 6.25 µg/mL is 97%. For the same compound, the MIC99 in the assay on Candida albicans was above 1000 µg/mL; against Aspergillus fumigatus, above 1000 µg/mL; in the assay with Vibrio cholerae, 100 µg/mL (≈ 201 µM); with Salmonella typhi it was 200 µg/mL (≈ 401 µM); against Escherichia coli, 200 µg/mL (≈ 401 µM); with Clostridium tetani, 100 µg/mL (≈ 201 µM). Moreover, the MIC99 against Streptococcus pneumoniae was determined as 200 µg/mL (≈ 401 µM); in the assay on Bacillus subtilis it was 250 µg/mL (≈ 501 µM).

Consider `NNC(=O)c1ccncc1` [ISONIAZID], for which the lowest concentration to inhibit growth in assay [1] (MIC) was 0.2 µg/mL (≈ 1.46 µM). For the same compound, the inhibition of growth at 6.25 µg/mL in assay [2] turned out to be 99%.

In assay [1], `COc1ccc2nc(Oc3ccc(F)cc3)c(-c3c(C#N)c(N)n4c(nc5cc(C)ccc54)c3C#N)cc2c1` displayed an MIC of 12.5 µg/mL (≈ 24.3 µM). In [2], the inhibition of growth at 6.25 µg/mL was 96%. In addition, the MIC99 turned out to be 500 µg/mL (≈ 972 µM) against Candida albicans; 1000 µg/mL (≈ 1940 µM) with Aspergillus fumigatus; 200 µg/mL (≈ 389 µM) against Vibrio cholerae; 200 µg/mL (≈ 389 µM) against Salmonella typhi; 100 µg/mL (≈ 194 µM) against Escherichia coli; 100 µg/mL (≈ 194 µM) against Clostridium tetani. For the same compound, the MIC99 came out at 100 µg/mL (≈ 194 µM) in the assay on Streptococcus pneumoniae and 250 µg/mL (≈ 486 µM) with Bacillus subtilis.

`Cc1ccc2nc(Oc3ccc(F)cc3)c(-c3c(C#N)c(N)n4c(nc5ccccc54)c3C#N)cc2c1`: the minimum inhibitory concentration (MIC) in assay [1] came to 25 µg/mL (≈ 51.6 µM). Also, the inhibition of growth at 6.25 µg/mL in assay [2] stood at 94%. The MIC99 is 250 µg/mL (≈ 516 µM) in the assay on Candida albicans; 500 µg/mL (≈ 1030 µM) in the assay with Aspergillus fumigatus; 250 µg/mL (≈ 516 µM) against Vibrio cholerae; 250 µg/mL (≈ 516 µM) against Salmonella typhi; 200 µg/mL (≈ 413 µM) against Escherichia coli; 250 µg/mL (≈ 516 µM) in the assay with Clostridium tetani. For the same compound, the MIC99 against Streptococcus pneumoniae amounted to 200 µg/mL (≈ 413 µM); in the assay on Bacillus subtilis, 250 µg/mL (≈ 516 µM).

For `COc1ccc(Oc2nc3ccc(C)cc3cc2-c2c(C#N)c(N)n3c(nc4cc(C)ccc43)c2C#N)cc1`, in assay [2], the inhibition of growth at 6.25 µg/mL is 25%. Further, the MIC99 with Candida albicans is 1000 µg/mL (≈ 1960 µM); against Aspergillus fumigatus, above 1000 µg/mL; with Vibrio cholerae, 200 µg/mL (≈ 392 µM); with Salmonella typhi it was 250 µg/mL (≈ 490 µM); with Escherichia coli it was 250 µg/mL (≈ 490 µM); against Clostridium tetani, 100 µg/mL (≈ 196 µM). The MIC99 with Streptococcus pneumoniae and with Bacillus subtilis was 125 µg/mL (≈ 245 µM) throughout.
